{"source": "patent US7517998B2", "about": "“Non nucleoside reverse transcriptase inhibitors” (priority 2004, dated 2009)", "data": [{"target": "T1, K103NNY181C mutant reverse transcriptase (Human immunodeficiency virus type 1 group M subtype B, UniProt P04585, K690N/Y768C)", "T1 construct": "mutations that occur in the reverse transcriptase segment of the pol gene", "assay": "Reverse transcriptase enzymatic assay (PicoGreen), K103N/Y181C mutant RT", "assay_type": "biochemical, HIV-1", "conditions": "IC50 mut (nM), mutant (K103N/Y181C) reverse transcriptase, enzymatic assay of Example 24", "procedure": "(§1) The enzymatic assay employed is described as follows: The reverse transcriptase (RT) enzyme assay has been adapted to a 96-well microtiter plate format and uses PicoGreen™ as a fluorescent intercalator. More explicitly, the HIV-1 RT enzyme was thawed and appropriately diluted into Tris/HCl 50 mM pH 7.8 containing NaCl 60 mM, MgCl2.6H2O 2 mM, DTT 6 mM, GSH 2 mM and 0.02% w/v Chaps to give ≈10 nM enzyme. To 10 μL of this enzyme solution was added 10 μL of inhibitor solution (40 μM to 2.032 nM inhibitor in the same assay buffer as above containing 4% v/v DMSO). The plate was pre-incubated for 15 minutes at room temperature before proceeding to the next step. In this pre-incubation step, the highest and lowest inhibitor concentrations were 20 μM and 1.016 nM respectively and the concentration of DMSO was 2% v/v. Then the enzymatic reaction was initiated by addition of 20 μL of substrate solution. The final reaction mixture contained Tris/HCl 50 mM pH 7.8, NaCl 60 mM, MgCl2.6H2O 2 mM, DTT 6 mM, GSH 2 mM, CHAPS 0.02% w/v, DMSO 1% v/v, poly rC 45 nM, dG15 4.5 nM, dGTP 3.6 μM, and 2.5 nM enzyme. In this incubation step, the highest and lowest inhibitor concentrations were 10 μM and 0.508 nM respectively. After addition of the substrate cocktail, the plate was covered with a plastic seal and incubated for 50 minutes at 37° C. in a dry incubator. The reaction was then quenched by addition of 5 μL of EDTA 0.5 M. The plate was shaken for 30 seconds at medium speed and incubated for 5 minutes at room temperature. Then 160 μL of PicoGreen™ 1:400 dilution from commercial stock (diluted in Tris 20 mM pH 7.5 with EDTA 1 mM) was added and the plate was shaken for 30 seconds and incubated for 10 minutes at room temperature. The plate was then analyzed using a POLARstar Galaxy fluorometer (BMG Labtechnologies) with λex and λem of 485 nm and 520 nm respectively. Each well was read for 1.25 second. Each row contained at its extremities a blank and a control well.", "units": {"IC50": "nM"}, "values": [{"smiles": "CC(C)(C)c1ccc(-n2nnnc2SCC(=O)Nc2ccc(NS(=O)(=O)c3ccccc3)cc2Cl)c(Cl)c1", "note": "[Compound 7003]", "IC50": 607}, {"smiles": "CC(C)C(=O)Nc1ccc(NC(=O)CSc2nnnn2-c2ccc(C(C)(C)C)cc2Cl)c(Cl)c1", "note": "[Compound 7010]", "IC50": 83}, {"smiles": "CC(C)(C)c1ccc(-n2nnnc2SCC(=O)Nc2ccc(NC(=O)c3ccc(C(=O)O)cc3)cc2Cl)c(Cl)c1", "note": "[Compound 7029]", "IC50": 88}, {"smiles": "CC(C)(C)c1ccc(-n2nnnc2SCC(=O)Nc2ccc(NC(=O)Cc3c[nH]c4ccccc34)cc2Cl)c(Cl)c1", "note": "[Compound 7043]", "IC50": 145}, {"smiles": "CC(C)(C)c1ccc(-n2nnnc2SCC(=O)Nc2ccc(NC(=O)c3ccc(O)cc3)cc2Cl)c(Cl)c1", "note": "[Compound 7011]", "IC50": 181}, {"smiles": "CC(C)(C)c1ccc(-n2nnnc2SCC(=O)Nc2ccc(NC(=O)C(C)(C)c3ccccc3)cc2Cl)c(Cl)c1", "note": "[Compound 7041]", "IC50": 337}, {"smiles": "CC(C)(C)c1ccc(-n2nnnc2SCC(=O)Nc2ccc(NC(=O)Cc3ccc[n+]([O-])c3)cc2Cl)c(Cl)c1", "note": "[Compound 7048]", "IC50": 97}, {"smiles": "CC(=O)NC(C(=O)Nc1ccc(NC(=O)CSc2nnnn2-c2ccc(C(C)(C)C)cc2Cl)c(Cl)c1)c1ccccc1", "note": "(stereo not shown) [Compound 7033]", "IC50": 21.5}, {"smiles": "CC(C)(C)c1ccc(-n2nnnc2SCC(=O)Nc2ccc(NC(=O)CCC(=O)O)cc2Cl)c(Cl)c1", "note": "[Compound 7028]", "IC50": 123}, {"smiles": "CC(C)(C)c1ccc(-n2nnnc2SCC(=O)Nc2ccc(NC(=O)c3ccccc3O)cc2Cl)c(Cl)c1", "note": "[Compound 7014]", "IC50": 415}]}, {"target": "T1, K103NNY181C mutant reverse transcriptase", "assay": "Reverse transcriptase enzymatic assay (PicoGreen), K103N/Y181C mutant RT", "assay_type": "biochemical, HIV-1", "conditions": "IC50 mut, K103N/Y181C mutant reverse transcriptase, enzymatic assay of Example 24", "procedure": "as §1", "units": {"IC50": "nM"}, "values": [{"smiles": "CN(C)CC(=O)NC(C)(C)C#Cc1ccc(NC(=O)CSc2nnnn2-c2ccc(C3CC3)cc2Cl)c(Cl)c1F", "note": "[Compound 4155]", "IC50": 9.15}, {"smiles": "CC(C)(C#Cc1ccc(NC(=O)CSc2nnnn2-c2cc(C3CC3)cc(C(F)(F)F)c2Cl)c(Cl)c1F)NC(=O)c1ccc[n+]([O-])c1", "note": "[Compound 4248]", "IC50": 30.5}, {"smiles": "CC(C)(C#Cc1ccc(NC(=O)CSc2nnnn2-c2ccc(C3CC3)cc2Cl)c(Cl)c1)C(=O)NCCN1CCCC1", "note": "[Compound 4143]", "IC50": 65}, {"smiles": "CC(C)(C#Cc1ccc(NC(=O)CSc2nnnn2-c2ccc(C3CC3)cc2Cl)c(Cl)c1)C(=O)NS(=O)(=O)c1ccccc1", "note": "[Compound 4183]", "IC50": 61}, {"smiles": "CC(C)(C#Cc1ccc(NC(=O)CSc2nnnn2-c2ccc(CC3CC3)cc2Cl)c(Cl)c1)C(=O)NCCCN1CCCC1=O", "note": "[Compound 4244]", "IC50": 217}, {"smiles": "CC(C)(C)c1ccc(-n2nnnc2SCC(=O)Nc2ccc(C#CCN3CCCC3)cc2Cl)c(Cl)c1", "note": "[Compound 4012]", "IC50": 46}, {"smiles": "O=C(CSc1nnnn1-c1ccc(C2CC2)cc1Cl)Nc1ccc(C#CCCN2CCCC2)cc1Cl", "note": "[Compound 4132]", "IC50": 49.5}, {"smiles": "CC(C)(C#Cc1ccc(NC(=O)CSc2nnnn2-c2cc(C3CC3)ccc2Cl)c(Cl)c1)NC(=O)c1cc[n+]([O-])cc1", "note": "[Compound 4208]", "IC50": 6.9}, {"smiles": "CC(C)(C#Cc1ccc(NC(=O)CSc2nnnn2-c2ccc(C3CC3)cc2Cl)c(Cl)c1)NC(=O)CN1CCC(O)CC1", "note": "[Compound 4125]", "IC50": 26}, {"smiles": "CC(=O)NC(C)(C)C#Cc1ccc(NC(=O)CSc2nnnn2-c2cc(C(F)(F)F)ccc2Cl)c(Cl)c1", "note": "[Compound 4141]", "IC50": 40}, {"smiles": "CC(C)(C#Cc1ccc(NC(=O)CSc2nnnn2-c2ccc(C3CC3)cc2Cl)c(Cl)c1)OCCO", "note": "[Compound 4098]", "IC50": 16.5}, {"smiles": "CC(C)(C#Cc1ccc(NC(=O)CSc2nnnn2-c2cc(C(C)(C)C)ccc2Cl)c(Cl)c1)NC(=O)CNc1cc[n+]([O-])cc1", "note": "[Compound 4203]", "IC50": 164}, {"smiles": "COc1ccc(Cl)c(-n2nnnc2SCC(=O)Nc2ccc(C#CC(C)(C)C(=O)O)cc2Cl)c1", "note": "[Compound 4114]", "IC50": 200}, {"smiles": "CC(C)(C#Cc1ccc(NC(=O)CSc2nnnn2-c2ccc(C3CC3)cc2Cl)c(Cl)c1)NC(=O)c1cnccn1", "note": "[Compound 4111]", "IC50": 8.6}, {"smiles": "CC(C)(C#Cc1ccc(NC(=O)CSc2nnnn2-c2ccc(C3CC3)cc2Cl)c(Cl)c1)NC(=O)CN1CCN(CCn2cccc2)CC1", "note": "[Compound 4126]", "IC50": 78}, {"smiles": "CNC(=O)COC(C)(C)C#Cc1ccc(NC(=O)CSc2nnnn2-c2ccc(C(C)(C)C)cc2Cl)c(Cl)c1", "note": "[Compound 4051]", "IC50": 35}, {"smiles": "CN(C)CCNC(=O)COC(C)(C)C#Cc1ccc(NC(=O)CSc2nnnn2-c2ccc(C(C)(C)C)cc2Cl)c(Cl)c1", "note": "[Compound 4047]", "IC50": 66}, {"smiles": "CC(C)(C#Cc1ccc(NC(=O)CSc2nnnn2-c2cc(C(C)(C)C)cc(Br)c2Cl)c(Cl)c1)C(=O)O", "note": "[Compound 4219]", "IC50": 97}, {"smiles": "CC(C)(C#Cc1ccc(NC(=O)CSc2nnnn2-c2cc(C(F)(F)F)ccc2Cl)c(Cl)c1)NC(=O)c1cc[n+]([O-])cc1", "note": "[Compound 4120]", "IC50": 17.5}, {"smiles": "CC(C)(C#Cc1ccc(NC(=O)CSc2nnnn2-c2ccc(C3CC3)cc2Cl)c(Cl)c1)OCCN1CCCCC1", "note": "[Compound 4103]", "IC50": 218}, {"smiles": "CC(C)(C#Cc1ccc(NC(=O)CSc2nnnn2-c2ccc(C3CC3)cc2Cl)c(Cl)c1)OCC(N)=O", "note": "[Compound 4064]", "IC50": 11.5}, {"smiles": "CC(C)(O)C#Cc1ccc(NC(=O)CSc2nnnn2-c2cc(C(C)(C)C)ccc2Cl)c(Cl)c1", "note": "[Compound 4199]", "IC50": 32}, {"smiles": "CC(C)(C#Cc1ccc(NC(=O)CSc2nnnn2-c2cc(Cl)ccc2Cl)c(Cl)c1)NC(=O)CN1CCNCC1", "note": "[Compound 4194]", "IC50": 45}, {"smiles": "CC(C)(C#Cc1ccc(NC(=O)CSc2nnnn2-c2cc(C(F)(F)F)cc(Cl)c2Cl)c(Cl)c1)NC(=O)c1cc[n+]([O-])cc1", "note": "[Compound 4210]", "IC50": 15.5}, {"smiles": "CN(C)CC(=O)NC(C)(C)C#Cc1ccc(NC(=O)CSc2nnnn2-c2ccc(C3CC3)cc2Cl)c(Cl)c1", "note": "[Compound 4087]", "IC50": 21.5}, {"smiles": "CC(C)(C#Cc1ccc(NC(=O)CSc2nnnn2-c2ccc(C(C)(C)C)cc2Cl)c(Cl)c1)OCC(=O)NCCC(=O)O", "note": "[Compound 4055]", "IC50": 15}, {"smiles": "CC(C)(C#Cc1ccc(NC(=O)CSc2nnnn2-c2cc(CC3CC3)ccc2Cl)c(Cl)c1)C(=O)O", "note": "[Compound 4213]", "IC50": 32.5}, {"smiles": "CN(C)CCCC(=O)NC(C)(C)C#Cc1ccc(NC(=O)CSc2nnnn2-c2cc(C(F)(F)F)ccc2Cl)c(Cl)c1", "note": "[Compound 4147]", "IC50": 52}, {"smiles": "CC(C)(C#Cc1ccc(NC(=O)CSc2nnnn2-c2ccc(C3CC3)cc2Cl)c(Cl)c1)OCCN1CCCC1=O", "note": "[Compound 4182]", "IC50": 58.5}, {"smiles": "CNC(=O)NC(C)(C)C#Cc1ccc(NC(=O)CSc2nnnn2-c2ccc(C3CC3)cc2Cl)c(Cl)c1", "note": "[Compound 4071]", "IC50": 8.75}]}, {"target": "T1, K103NNY181C mutant reverse transcriptase", "assay": "Reverse transcriptase enzymatic assay (PicoGreen), K103N/Y181C mutant RT", "assay_type": "biochemical, HIV-1", "conditions": "IC50 mut, mutant reverse transcriptase, enzymatic assay of Example 24", "procedure": "as §1", "units": {"IC50": "nM"}, "values": [{"smiles": "CC(CC(=O)O)NC(=O)c1ccc(NC(=O)CSc2nnnn2-c2ccc(C(C)(C)C)cc2Cl)c(Cl)c1", "note": "(stereo not shown) [Compound 6015]", "IC50": 39}, {"smiles": "CC(C)(C)c1ccc(-n2nnnc2SCC(=O)Nc2ccc(C(=O)Nc3ccc(CCC(=O)O)cc3)cc2Cl)c(Cl)c1", "note": "[Compound 6031]", "IC50": 29.5}, {"smiles": "CCN(CC)CCOc1ccc(-c2ccc(NC(=O)CSc3nnnn3-c3ccc(C(C)(C)C)cc3Cl)c(Cl)c2)cc1", "note": "[Compound 2024]", "IC50": 26}, {"smiles": "CC(C)(C)c1ccc(-n2nnnc2SCC(=O)Nc2ccc(-c3ccc(OCCN4CC[C@@H](O)C4)cc3)cc2Cl)c(Cl)c1", "note": "[Compound 2041]", "IC50": 28}, {"smiles": "CC(C)(C)c1ccc(-n2nnnc2SCC(=O)Nc2ccc(-c3ccc(OCCN4CC[C@H](O)C4)cc3)cc2Cl)c(Cl)c1", "note": "[Compound 2042]", "IC50": 15}, {"smiles": "O=C(CSc1nnnn1-c1ccc(C2CC2)cc1Cl)Nc1ccc(C(=O)NS(=O)(=O)c2ccccc2)cc1Cl", "note": "[Compound 6037]", "IC50": 111}, {"smiles": "Cc1ccc(-n2nnnc2SCC(=O)Nc2ccc(-c3ccc(CC(=O)O)cc3)cc2Cl)c(Cl)c1", "note": "[Compound 2004]", "IC50": 48}, {"smiles": "Cc1cc(F)c(-n2nnnc2SCC(=O)Nc2ccc(-c3ccc(C(C)(C)C(=O)O)cc3)cc2Cl)c(Cl)c1", "note": "[Compound 2026]", "IC50": 48}, {"smiles": "CCNC(=O)c1ccc(NC(=O)CSc2nnnn2-c2ccc(C)cc2Cl)c(Cl)c1", "note": "[Compound 3008]", "IC50": 300}, {"smiles": "O=C(CSc1nnnn1-c1ccc(C2CC2)cc1Cl)Nc1ccc(-c2ccc(OCCN3CCCCC3)cc2)cc1Cl", "note": "[Compound 2047]", "IC50": 63.5}, {"smiles": "CN1CCN(C(=O)COc2ccc(NC(=O)CSc3nnnn3-c3ccc(C(C)(C)C)cc3Cl)c(Cl)c2)CC1", "note": "[Compound 5003]", "IC50": 48}, {"smiles": "CC(C)(C)c1ccc(-n2nnnc2SCC(=O)Nc2ccc(C(=O)NCCN3CCOCC3)cc2Cl)c(Cl)c1", "note": "[Compound 6028]", "IC50": 55}, {"smiles": "CC(C)(C)c1ccc(-n2nnnc2SCC(=O)Nc2ccc(-c3ccc(/C=C/C(=O)O)s3)cc2Cl)c(Cl)c1", "note": "[Compound 3031]", "IC50": 15.5}, {"smiles": "CC(C)(C)c1ccc(-n2nnnc2SCC(=O)Nc2ccc(C(=O)NCc3ccc(O)c(O)c3)cc2Cl)c(Cl)c1", "note": "[Compound 6019]", "IC50": 36}, {"smiles": "CC(C)(C)c1ccc(-n2nnnc2SCC(=O)Nc2ccc(C(=O)N3CCOCC3)cc2Cl)c(Cl)c1", "note": "[Compound 6005]", "IC50": 564}]}]}
